# Results: patent US5846936A, “Growth hormone releasing factor analogs” (Roche Vitamins Inc., priority 1995, dated 1998)
# *1 amine or outer side, *2 acyl side, *3 side chain or, on linkers, in order; H or OH if unused. Where a SMILES comes first, the peptide text is derived from it. Where no end group is shown, it is not given here. [ ]: non-standard residue; d: D form. The star is where a group is joined. Desaminotyrosyl = O=C(CCc1ccc(O)cc1)*; βAsp = O=C(O)[C@H](CC(=O)[*:2])N[*:1]
# Key:
# [1] = literature; cited from earlier work
# [2] = products of Asn^8 deamidation of [Leu^27]-GRF(1-32)-NH2 at pH 7.4, literature; cited from earlier work
# [3] = system: rat pituitary cells; format: cell-based
# Protocol: The biological activity of the novel peptides were compared with that of a synthetic standard of the natural sequence of GRF(1-44)-NH2 (SEQ ID NO: 1-NH2) which was isolated from a human pancreatic tumor of an individual suffering from acromegaly (Salk Institute standard hp-GRF-NH2 (NL-A-10)). The assay for biological activity, which is based on the ability to stimulate production of growth hormone in rat pituitary cells in tissue culture, was performed in the following manner. Pituitaries from 30-40 male Sprague-Dawley rats (175 g) were removed aseptically after decapitation. The anterior lobes were collected, washed 3 times in sterile Hepes buffer (0.025M)(pH 7.35) and dispersed at 37° C. in 20-30 ml Hepes buffer (pH 7.35) containing collagenase (4 mg per ml) and Dispase (Protease grande II, 2 mg per ml). After gentle 80 min. vortexing and trituration by Pasteur pipette, the dispersed cells were separated by centrifugation (150×g, 4 min.) and re-suspended in Hepes buffer containing neuraminidase (4 mg/ml), and […] ethylenediaminetetraacetic acid (EDTA) disodium salt pH 7.35, for 10 min. The cells were washed twice with plating medium and plated on multiwell-plates (1.5×10^5 cells per ml) using the following defined medium: F-12/DMEM/BGJ(6:3:1) (Gibco: 430-1700/430-1600/320-2591) with 2 g BSA/L., 2.38 g Hepes/L.,50 mg Gentamycin/L (Schering Co.). The medium in each well was supplemented either with the novel peptide or natural GRF(1-44)-NH2 (SEQ ID NO: 1-NH2) at concentrations ranging from 3.1 to 200 fmol. per ml. of medium. Control wells contained no supplement. Plating was done with this medium added with 2% fetal calf serum to ensure rapid fixation of the cells. On the fourth day the cells were washed twice with the defined medium without fetal calf serum. Finally […] of defined medium was added to each well plus […] of the same medium containing each individual treatment, in triplicate. After 3 hours of incubation the medium was collected and diluted as required to conduct radioimmunoassay (RIA) for rat growth hormone. RIAs were conducted using Sinha's anti-murine GH immune serum and procedures according to the National Pituitary Agency using protein A to precipitate antibody antigen complex.
# [4] = system: crossbred swine; assay: In vivo GRF analog administration in swine, serum GH by RIA (GH AUC); settings: relative to GRF(1-29)-NH2
# Protocol: In vivo GRF analog studies were performed in crossbred swine (approximately70 lbs; Hoffmann-La Roche Experimental Research Facility) housed in individual metabolism cages with food and water freely available. For each GRF analog examined, six pigs were arranged in a 6×6 latin square design, such that each pig received a different dose (0 [saline], 0.3, 1.0, 3.0, 6.0 or 10.0 μg/kg body weight) over a six day period. […] All swine were cannulated via the femoral artery under halothane/ketamine HCL/xylezine anesthesia for subsequent (2-3 days) blood sampling. GRF analog was administered by subcutaneous injection in porcine gelatin. Pretreatment (control) blood samples were taken every 30 min from 8:30-9:30 a.m. Treatment doses were administered beginning at 10:00 a.m. One hr post-dosing, animals were sampled at 10 min intervals; 2nd hr post-dosing, animals were sampled at 15 min intervals; 3rd hr post-dosing,animals were sampled at 30 min intervals. […]
# GH levels in porcine sera were measured by homologous double-antibody RIA, employing porcine GH standard (lot# AFP-10859C) supplied by Dr. A. Parlow (Research and Education Institute, Torrance, Calif.) and baboon anti-pGH sera (B-58: Hoffmann-La Roche). […] GH area under the curve (GH AUC) for the treatment period (0-360 min) was determined by trapezoidal summation. […]
molecule,measurement,setting,value
GRF(1-29)-NH2,Intrinsic activity and potency in vitro,[1],full intrinsic activity and potency
"[isoAsp^8, Leu^27 ]-GRF(1-32)-NH2 (YADAIFT[βAsp]SYRKVLGQLSARKLLQDILSRQQG-NH2; N-terminus assumed; SMILES CC[C@H](C)[C@H](NC(=O)[C@H](C)NC(=O)[C@H](CC(=O)O)NC(=O)[C@H](C)NC(=O)[C@@H](N)Cc1ccc(O)cc1)C(=O)N[C@@H](Cc1ccccc1)C(=O)N[C@H](C(=O)N[C@@H](CC(=O)N[C@@H](CO)C(=O)N[C@@H](Cc1ccc(O)cc1)C(=O)N[C@@H](CCCNC(=N)N)C(=O)N[C@@H](CCCCN)C(=O)N[C@H](C(=O)N[C@@H](CC(C)C)C(=O)NCC(=O)N[C@@H](CCC(N)=O)C(=O)N[C@@H](CC(C)C)C(=O)N[C@@H](CO)C(=O)N[C@@H](C)C(=O)N[C@@H](CCCNC(=N)N)C(=O)N[C@@H](CCCCN)C(=O)N[C@@H](CC(C)C)C(=O)N[C@@H](CC(C)C)C(=O)N[C@@H](CCC(N)=O)C(=O)N[C@@H](CC(=O)O)C(=O)N[C@H](C(=O)N[C@@H](CC(C)C)C(=O)N[C@@H](CO)C(=O)N[C@@H](CCCNC(=N)N)C(=O)N[C@@H](CCC(N)=O)C(=O)N[C@@H](CCC(N)=O)C(=O)NCC(N)=O)[C@@H](C)CC)C(C)C)C(=O)O)[C@@H](C)O) [deamidation product of [Leu^27]-GRF(1-32)-NH2]",Biological activities,[2],substantially reduced biological activities
"CC[C@H](C)[C@H](NC(=O)[C@H](C)NC(=O)[C@H](CC(=O)O)NC(=O)[C@@H](C)NC(=O)CCc1ccc(O)cc1)C(=O)N[C@@H](Cc1ccccc1)C(=O)N[C@H](C(=O)N[C@@H](CC(N)=O)C(=O)N[C@@H](CO)C(=O)N[C@@H](Cc1ccc(O)cc1)C(=O)N[C@@H](CCCNC(=N)N)C(=O)N[C@@H](CCCCN)C(=O)N[C@H](C(=O)N[C@@H](CC(C)C)C(=O)N[C@@H](C)C(=O)N[C@@H](CCC(N)=O)C(=O)N[C@@H](CC(C)C)C(=O)N[C@@H](CO)C(=O)N[C@@H](C)C(=O)N[C@@H](CCCNC(=N)N)C(=O)N[C@@H](CCCCN)C(=O)N[C@@H](CC(C)C)C(=O)N[C@@H](CC(C)C)C(=O)N[C@@H](CCC(N)=O)C(=O)N[C@@H](CC(=O)O)C(=O)N[C@H](C(=O)N[C@@H](CCSC)C(=O)N[C@@H](CO)C(=O)N[C@@H](CCCNC(=N)N)C(N)=O)[C@@H](C)CC)C(C)C)[C@@H](C)O [SEQ ID NO: 34-NH2, reference compound] (Desaminotyrosyl-[dA]DAIFTNSYRKVLAQLSARKLLQDIMSR-NH2)",Potency of GRF Analogs Relative to GRF(1-44)-NH2 (SEQ ID NO: 1-NH2),[3],4.71
same,Times more potent than GRF(1-29)-NH2 (SEQ ID NO: 3-NH2),[4],10-15 times
"[Asp^8, Leu^27 ]-GRF(1-32)-NH2 (YADAIFTDSYRKVLGQLSARKLLQDILSRQQG-NH2) [deamidation product of [Leu^27]-GRF(1-32)-NH2]",Biological activities,[2],substantially reduced biological activities
